Data taken from PMC11744668, “2-Cyanopyrimidine-Containing Molecules for N-Terminal Selective Cyclization of Phage-Displayed Peptides” (ACS Chemical Biology, 2025).
Entries after “also recorded” stand apart in the source; their conditions may differ. Starred links: 1 amine or outer side, 2 acyl side, 3 side chain; linkers in the order of their positions; H or OH if unused. Positions of bridges follow the written chain, without caps; N, C: chain ends. Non-standard residues stand in square brackets, D forms with d. Residues, ends and D or L forms follow the SMILES beside them. No end group written: not given here. X1 = O=C([C@@H]1CSC(c2ncc(N[*:1])cn2)=N1)[*:2]; Abu = CC[C@H](N)C(=O)O

Experiments:
[1] = biological target: T1, ZNRF3 extracellular domain (ZNRF3-ECD) (Homo sapiens, UniProt Q9ULT6); experiment: Biolayer interferometry (BLI) binding to immobilized biotinylated ZNRF3-ECD; details: 10 mM HEPES, 150 mM NaCl, 0.01% Tween 20, pH 7.5, 0.8% DMF; for Kd: streptavidin biosensors, 1:1 binding model, mean ± s.d., n = 3
T1 construct: The ZNRF3 ECD was expressed and characterized exactly as previously described; SUMO (N, cleaved yes); made in house; host or cells: E. coli BL21, co-expressing BirA
T1 sequence (Q9ULT6 56-219 limits assumed): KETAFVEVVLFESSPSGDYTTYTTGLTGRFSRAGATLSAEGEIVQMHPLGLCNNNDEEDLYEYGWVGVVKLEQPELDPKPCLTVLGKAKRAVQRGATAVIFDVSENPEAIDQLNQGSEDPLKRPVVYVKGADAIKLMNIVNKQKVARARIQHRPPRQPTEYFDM
Experimental: The ZNRF3 ECD was expressed and characterized exactly as previously described.[38] Plasmid pET28a-SUMO-ZNRF3-Avi was cotransformed into E. coli (BL21) along with a plasmid expressing BirA. The cells were then inoculated into 2× YT containing 50 μg/mL kanamycin and 34 μg/mL chloramphenicol and grown at 37 °C until OD = 0.5. Expression was then induced by the addition of 1 mM IPTG and 50 μM biotin, and then the protein was expressed for 18 h at 16 °C. The cells were then pelleted (3750g, 15 min) and then resuspended in buffer A (50 mM Tris-HCl, 10% glycerol, 150 mM NaCl, and 25 mM imidazole, pH 7.5, 20 mL/liter of expression). The cells were then lysed by sonication (1 s on, 1 s off, 5 min, 60% A, repeated once), and the lysate was clarified by centrifugation (25,000g, 20 min). The supernatant was then incubated with a Ni-NTA column for 45 min at 4 °C. The column was then washed with 5 CV of buffer A before being eluted using 2 CV of buffer B (buffer A + 240 mM imidazole). The elution was then concentrated using an Amicon centrifugal filter before being desalted into buffer A on a HiPrep 26/10 column. The SUMO tag was then cleaved by the addition of 30 μg/mL SUMO protease and incubation for 48 h at 4 °C. The protein was then loaded onto a second Ni-NTA column for 45 min at 4 °C, and the flowthrough was collected and concentrated to 1 mL by centrifugation. Pure protein was then isolated using size exclusion chromatography (HiLoad 16/600, Superdex 75 pg) in buffer C (50 mM Tris-HCl, pH 7.5, 10% (v/v) glycerol, 150 mM NaCl, and 0.5 mM EDTA). Pure protein was stored in storage buffer (50 mM Tris-HCl, pH 7.5, 50% (v/v) glycerol, and 150 mM NaCl) at −80 °C before being used for assays.
Biolayer interferometry (BLI) experiments were performed using streptavidin-coated biosensors (Sartorius Bio) on an Octet R8 biolayer interferometer (Sartorius Bio). All experiments were performed in assay buffer (10 mM HEPES, 150 mM NaCl, and 0.01% Tween 20, pH 7.5). Biotinylated ZNRF3 (28 μg/mL in assay buffer) was loaded onto the sensor to 4 nm of loading over 10 min, and then the sensors were quenched for one min with a 1% BSA solution in assay buffer. Peptides were serially diluted in assay buffer containing 0.8% DMF, and the association and dissociation to ZNRF3 were measured over 3 and 5 min, respectively. Between each experiment, sensors were regenerated using 10 mM glycine, pH 1.5. Binding curves were double-referenced against a protein-only sensor and a parallel unloaded sensor to correct for any nonspecific binding to the sensors. All curves were fit in the Octet Kinetic Analysis program (Sartorius Bio) using a 1:1 protein/ligand binding model.

CA5C-sfGFP = experiment: Cyclization of CA5C-sfGFP with linkers (LC-ESI-MS); details: 100 μM linker, 3 h, 22 °C (RT), PBS pH 7.4, 1 mM TCEP
Experimental: The designed organic linkers were tested for their ability to cyclize a CA5C peptide expressed as an N-terminal fusion to sfGFP (CA5C-sfGFP). Following reduction of the protein with 1 mM TCEP for 30 min, 100 μM compounds were reacted with the reduced CA5C-sfGFP for 3 h in PBS (pH 7.4). Following the reaction, the protein was analyzed via electrospray ionization mass spectrometry (ESI-MS) analysis to determine the desired adduct and any potential side reactions that occurred. […] This is likely due to the electron withdrawing effects of the nitrogen atoms adjacent to the nitrile in the 2-cyanopyrimidine derivatives. […] Following previously established Bayesian deconvolution of the mass spectra,[23] protein masses from each reaction (MW = 28,399 Da) corresponded well with that of the expected cyclic product (MW = 28,399 Da). […] This observed mass matches a TCEP-conjugated product resulting from a previously reported competing phospha-Michael addition of TCEP to the acrylamide moiety.[24] This product has a TCEP-functionalized linker that is nonreactive toward the internal cysteine (Figure 2A,B). Following these initial studies, we then further optimized the cyclization of CA5C-sfGFP using pCAmCP and mCAmCP by varying the reaction time, temperature, and concentration of linkers (Figure 2C).
Purified CA5C-sfGFP was diluted to 500 nM in PBS (pH 7.4) containing 1 mM TCEP and left to incubate for 30 min at 37 °C. Linker (100 μM final concentration) or equivalent amounts of DMSO were then added to the solution, and it reacted at varying times (3 or 16 h) and temperatures (22 or 37 °C). All initial tests for reactivity were performed at 22 °C for 3 h, while linkers pCAmCP and mCAmCP were optimized with the additional conditions. The reaction mixtures were then concentrated and exchanged to ammonium bicarbonate (50 mM, pH 8.0) using an Amicon centrifugal filter (MWCO: 10 kDa). Samples were analyzed using a QExactive Orbitrap LC–MS System (Thermo Fisher) and deconvoluted using UniDec software.[23]

| Compound | Kd [1] [µM] | reactivity with / cyclization of CA5C-sfGFP (in words) (CA5C-sfGFP) | other results |
| --- | --- | --- | --- |
| CC(C)C[C@@H]1NC(=O)[C@H](CCCCN)NC(=O)[C@H](CCC(N)=O)NC(=O)[C@H](CCCNC(=N)N)NC(=O)[C@H](Cc2c[nH]c3ccccc23)NC(=O)[C@H](C)NC(=O)[C@H](CCC(=O)O)NC(=O)[C@H](CC(C)C)NC(=O)[C@@H]2CCCN2C(=O)[C@H](CO)NC(=O)[C@H](CC(C)C)NC(=O)[C@H](Cc2c[nH]cn2)NC(=O)[C@@H](N)CSSC[C@@H](C(N)=O)NC1=O [Peptide Z27S1Disulf] (H-CHLSPLEAWRQKLC-NH2; disulfide 1-14) | 3 ± 2 |  |  |
| CC[C@H](C)[C@@H]1NC(=O)[C@H](Cc2ccccc2)NC(=O)[C@H](CCC(N)=O)NC(=O)[C@H](C)NC(=O)[C@H](C)NC(=O)[C@H](CC(N)=O)NC(=O)[C@@H]2CCCN2C(=O)[C@@H](N)CSSC[C@@H](C(N)=O)NC(=O)[C@H](C)NC(=O)[C@H](CCCNC(=N)N)NC(=O)[C@H](CO)NC(=O)[C@H](Cc2ccc(O)cc2)NC(=O)[C@H](CCCNC(=N)N)NC1=O [Peptide Z27S3Disulf] (H-CPNAAQFIRYSRAC-NH2; disulfide 1-14) | 4 ± 1 |  |  |
| CC[C@H](C)[C@@H]1NC(=O)[C@H](Cc2ccccc2)NC(=O)[C@H](CCC(N)=O)NC(=O)[C@H](C)NC(=O)[C@H](C)NC(=O)[C@H](CC(N)=O)NC(=O)[C@@H]2CCCN2C(=O)[C@@H]2CSC(=N2)c2ncc(cn2)NC(=O)CSC[C@@H](C(N)=O)NC(=O)[C@H](C)NC(=O)[C@H](CCCNC(=N)N)NC(=O)[C@H](CO)NC(=O)[C@H](Cc2ccc(O)cc2)NC(=O)[C@H](CCCNC(=N)N)NC1=O [Peptide Z27S3] ({CH2CO}-[X1]PNAAQFIRYSRAC-NH2; thioether N-14) | 3.5 ± 0.3 |  |  |
| C=CC(=O)Nc1ccnc(C#N)n1 [mAcCP] |  | did not result in the expected CA5C-sfGFP cyclization |  |
| C=CC(=O)Nc1cnc(C#N)nc1 [pAcCP] |  | did not result in the expected CA5C-sfGFP cyclization |  |
| C=CC(=O)Nc1cnc(C#N)cn1 [pAcCPy] |  | essentially no reactivity with the protein |  |
| CHLSPLEAWRQKLC (also: sidechain bridge or staple (positions not given here)) [Peptide Z27S1-mCP, Z27S1 cyclized with mCAmCP] |  |  | binding to ZNRF3 (in words) [1]: No significant dose-dependent interactions were observed; also recorded: no significant binding to ZNRF3 |
| [Abu]PNAAQFIRYSRA[Abu] [Peptide Z27S3Abu, Abu derivative of Z27S3] |  |  | binding to ZNRF3 (in words) [1]: no binding to ZNRF3 |
